Results as given in ChEMBL document CHEMBL4742385 (2019).
Where “and” joins values, the source holds several entries; their conditions need not be identical. Identical values can stand only once.

Columns and labels:
[1] = target: CDK8/Cyclin C (Homo sapiens) (UniProt P49336+P24863); experiment: Inhibition of human CDK8/Cyc C expressed in Sf21 cells at 1 uM measured after 1 hr by fluorescence plate reader relative to control
RPMI-8226 = experiment: Antiproliferative activity against human RPMI-8226 assessed as inhibition of cell growth at 1 uM after 8 days measured after Celltiter-Glo assay relative to control; type: functional; conditions: time 8 day; for inhibition at 1 µM: Homo sapiens, RPMI-8226, 192 h
[2] = target: Cyclin-C/Cyclin-dependent kinase 19 (Homo sapiens) (UniProt Q9BWU1+P24863); experiment: Inhibition of humanGST-tagged CDK19/Cyc C expressed in Sf21 cells at 1 uM measured after 1 hr by fluorescence plate reader relative to control

SMILES | inhibition [1] | inhibition at 1 µM (RPMI-8226) | inhibition [2] | inhibition (INH) (RPMI-8226)
COc1ccc(-c2ccncc2/C=C/C(=O)Nc2ccc(CN3CCOCC3)cc2)s1 | 93% | 58% | 96% | 
O=C(/C=C/c1cnccc1-c1cccs1)Nc1ccc(CCc2nnco2)cc1 | 101% | 59% | 100% | 
Cn1cc(-c2ccncc2/C=C/C(=O)Nc2ccc(CN3CCOCC3)c(C#N)c2)cn1 | 100% | 54% | 99% | 
COC1CN(Cc2ccc(NC(=O)/C=C/c3cncc(F)c3-c3cnn(C4CC4)c3)cc2)C1 | 101% | 63% | 100% | 
O=C(/C=C/c1cnccc1-c1cncs1)Nc1ccc(CN2CCOCC2)cc1 | 94% | 52% | 97% | 
Cn1cc2cc(-c3ccncc3/C=C/C(=O)Nc3ccc(CN4CCOCC4)cc3)ccc2n1 | 97% | 52% | 93% | 
O=C(/C=C/c1cnccc1-c1cnn(C2CCC2)c1)Nc1ccc(CN2CCOCC2)cc1 | 96% | 54% | 96% | 
Cc1nn(C)cc1-c1ccncc1/C=C/C(=O)Nc1ccc(CCc2nnco2)cc1 | 100% | 54% | 98% | 
Cn1cc(-c2ccncc2/C=C/C(=O)Nc2ccc(CN3CCOCC3)c(Cl)c2)cn1 | 99% | 53% | 99% | 
Cn1cc(-c2ccncc2/C=C/C(=O)Nc2ccc3c(c2)CCC3=O)cn1 | 92% | 54% | 87% | 
O=C(/C=C/c1cnccc1-c1cnn(C(F)F)c1)Nc1ccc(CN2CCOCC2)cc1 | 98% | 53% | 100% | 
Cc1cc(NC(=O)/C=C/c2cnccc2-c2cnn(C)c2)ccc1CN1CCOCC1 | 96% | 58% | 98% | 
Cn1cc(-c2ccncc2/C=C/C(=O)Nc2ccc(CN3CCOCC3)c(O)c2)cn1 | 97% | 54% | 99% | 
CCn1cc(-c2ccncc2CCC(=O)Nc2ccc(CN3CCOCC3)cc2)cn1 | 90% | 62% | 85% | 
CC1CN(Cc2ccc(NC(=O)/C=C/c3cnccc3-c3cnn(C)c3)cc2)CCO1 (configuration not stated) | 99% | 55% | 97% | 
O=C(/C=C/c1cnccc1-c1cnn(C2CC2)c1)Nc1ccc2c(c1)CN(CC(F)(F)F)CC2 | 98% | 63% | 102% | 
Cn1cc(-c2ccncc2/C=C/C(=O)Nc2ccc(CCN3CCOCC3)cc2)cn1 | 96% | 59% | 101% | 
COc1ncc(-c2ccncc2/C=C/C(=O)Nc2ccc(CN3CCOCC3)cc2F)s1 | 99% | 63% | 96% | 
CC(=O)n1cc(-c2ccncc2/C=C/C(=O)Nc2ccc(CN3CCOCC3)cc2)cn1 | 96% | 65% | 101% | 
O=C(/C=C/c1cnccc1-c1cnn(C2CC2)c1)Nc1ccc(CN2CC(F)(F)C2)cc1 | 102% [middle of 6 runs] |  | 101% (3×) and 100% (3×) | 
O=C(/C=C/c1cnccc1-c1cnsc1)Nc1ccc(CN2CCOCC2)cc1 | 90% | 51% | 94% | 

SMILES | inhibition [1] | inhibition at 1 µM (RPMI-8226) | inhibition [2] | inhibition (INH) (RPMI-8226)
CCN1CCc2cc(NC(=O)/C=C/c3cnccc3-c3cnn(C)c3)ccc2C1 | 96% | 58% | 95% | 
Cn1cc(-c2ccncc2/C=C/C(=O)Nc2ccc(Cn3cccn3)cc2)cn1 | 102% | 53% | 97% | 
Cc1noc(C)c1-c1ccc(NC(=O)/C=C/c2cnccc2-c2cnn(C3CC3)c2)c(F)c1 | 103% | 58% | 98% | 
Cn1cc(-c2ccncc2/C=C/C(=O)Nc2ccc3c(c2)OCCO3)cn1 | 100% | 59% | 97% | 
Cn1cc(-c2ccncc2/C=C/C(=O)Nc2ccc(N3CCOCC3)c(Cl)c2)cn1 | 102% | 60% | 100% | 
Cn1cc(-c2ccncc2/C=C/C(=O)Nc2ccc(CNCC(F)(F)C(F)(F)F)cc2)cn1 | 101% | 56% | 99% | 
O=C(/C=C/c1cnccc1-c1cnn(C2CC2)c1)Nc1ccc(CN2CC3(COC3)C2)cc1 | 110% | 56% | 98% | 
O=C(/C=C/c1cnccc1-c1cnn(CC2CC2)c1)Nc1ccc(CCN2CCOCC2)cc1 | 94% | 58% | 97% | 
Cn1cc(-c2ccncc2/C=C/C(=O)Nc2ccc3c(c2)CCN(CC(F)(F)F)C3)cn1 | 98% | 65% | 101% | 
Cn1cc(-c2ccncc2/C=C/C(=O)Nc2ccc(CNC3CC(F)(F)C3)cc2)cn1 | 96% | 63% | 97% | 
CC1COCCN1Cc1ccc(NC(=O)/C=C/c2cnccc2-c2cnn(C)c2)cc1 (configuration not stated) | 100% | 55% | 95% | 
Cn1cc(-c2ccncc2/C=C/C(=O)Nc2ccc(CN3CCC(F)(F)C3)cc2)cn1 | 99% | 62% | 100% | 
Cc1ncc(-c2ccncc2/C=C/C(=O)Nc2ccc(CN3CCOCC3)cc2)s1 | 95% | 54% | 95% | 
CC(c1ccc(NC(=O)/C=C/c2cnccc2-c2cnn(C)c2)cc1)N1CCOCC1 (configuration not stated) | 96% | 57% | 98% | 
CC(=O)N(C)Cc1cc(NC(=O)/C=C/c2cnccc2-c2cnn(C)c2)ccc1C | 95% | 49% | 93% | 
Cn1cnc2ccc(-c3c(F)cncc3/C=C/C(=O)Nc3ccc4c(c3)CN(CC(F)(F)F)C4)cc21 | 101% | 69% | 96% | 
Cn1cc(-c2ccncc2/C=C/C(=O)Nc2ccc(CN3CCCC3CO)cc2)cn1 (configuration not stated) | 104% | 52% | 93% | 
O=C(/C=C/c1cnccc1-c1cnn(CC2CC2)c1)Nc1ccc(CN2CCOCC2)cc1 | 98% | 55% | 99% | 
CN(C)CCOc1ccc(NC(=O)/C=C/c2cnccc2-c2cnn(C)c2)cc1 | 99% | 60% | 93% | 
Cc1cc(NC(=O)/C=C/c2cnccc2-c2cnn(C3CC3)c2)ccc1CN1CCOCC1 | 98% | 62% | 99% | 
Cn1cc(-c2ccncc2/C=C/C(=O)Nc2ccc(CN3CC(F)(F)C3)cc2)cn1 | 99% | 48% | 99% | 

SMILES | inhibition [1] | inhibition at 1 µM (RPMI-8226) | inhibition [2] | inhibition (INH) (RPMI-8226)
CN1CCc2ccc(NC(=O)/C=C/c3cnccc3-c3cnn(C)c3)cc2C1 | 100% | 52% | 98% | 
O=C(/C=C/c1cnccc1-c1ccc2nccn2c1)Nc1ccc(CN2CCOCC2)cc1 | 101% | 52% | 100% | 
CC1CN(Cc2ccc(NC(=O)/C=C/c3cnccc3-c3cnn(C4CC4)c3)cc2)C1 | 102% | 55% | 97% | 
Cn1cnc2ccc(-c3c(F)cncc3/C=C/C(=O)Nc3ccc(CN4CC(F)(F)C4)cc3)cc21 | 87% | 67% | 101% | 
CC(C)(F)Cc1ccc(NC(=O)/C=C/c2cnccc2-c2cnn(C3CC3)c2)cc1 | 102% | 61% | 95% | 
Cn1cc(-c2ccncc2/C=C/C(=O)Nc2ccc(N3CC(F)(F)C3)cc2)cn1 | 105% | 50% | 99% | 
COCCOc1ccc(NC(=O)/C=C/c2cnccc2-c2cnn(C)c2)cc1 | 98% | 62% | 97% | 
Cn1cc(-c2ccc(NC(=O)/C=C/c3cnccc3-c3cnn(C4CC4)c3)cc2)cn1 | 92% | 58% | 97% | 
CS(=O)(=O)O.O=C(/C=C/c1cnccc1-c1cnn(C2CC2)c1)Nc1ccc(CN2CC(F)(F)C2)cc1 |  |  |  | 70%
O=C(/C=C/c1cnccc1-c1cnn(C2CC2)c1)Nc1ccc2c(c1)CN(CC(F)(F)C(F)(F)F)CC2 | 97% | 57% | 94% | 
O=C(/C=C/c1cnccc1-c1cnn(C2CC2)c1)Nc1ccc2c(c1)CN(CC(F)(F)CO)C2 | 102% | 65% | 96% | 
O=C(/C=C/c1cnccc1-c1cnn(C2CC2)c1)Nc1ccc(C2CC2)cc1 | 95% | 53% | 89% | 
Cn1cc(-c2ccncc2/C=C/C(=O)Nc2ccc3c(c2)OCO3)cn1 | 96% | 53% | 94% | 
O=C(/C=C/c1cnccc1-c1cnn(Cc2ccccn2)c1)Nc1ccc(CN2CCOCC2)cc1 | 101% | 57% | 98% | 
COC(C)(C)Cc1ccc(NC(=O)/C=C/c2cnccc2-c2cnn(C3CC3)c2)cc1 | 101% | 67% | 94% | 
O=C(/C=C/c1cnccc1-c1cnn(C2CC2)c1)Nc1ccc(CN2CC(F)(F)C2)cc1.O=C(O)CCC(=O)O |  |  |  | 66%
O=C(/C=C/c1cnccc1-c1cnn(C2CC2)c1)Nc1ccc(CN2CC(F)(F)C2)cc1.O=P(O)(O)O.O=P(O)(O)O |  |  |  | 69%
O=C(/C=C/c1cnccc1-c1cnn(C2CC2)c1)Nc1ccc(CN2CC(F)(F)C2)cc1.O=C(O)/C=C/C(=O)O |  |  |  | 70%
O=C(/C=C/c1cnccc1-c1cnn(C2CC2)c1)Nc1ccc(CN2CC(F)(F)C2)cc1.O=S(=O)(O)O |  |  |  | 70%
